Results published in patent publication EP2435019B1, “DODECA-2E,4E-DIENE AMIDES AND THEIR USE AS MEDICAMENTS AND COSMETICS” (Dr. August Wolff GmbH & Co. KG Arzneimittel, priority 2009, dated 2010).

What was measured:
[1] = tested on: IL-8; experiment: Induced chemokine IL-8 in HaCaT keratinocytes; assay type: cell-based, human; settings: Figure 6, 5 µM, tolerogen 10 µg/ml, 6h
Procedure: • Figure 1: AEA re-uptake inhibition of 2E,4E-dieneamides 1 and 9 into human primary monocytes and U937 cells. […] Data are mean values ± SEM of 3 independent experiments in a sigmoidal dose-response curve. • Figure 2: Concentration-dependent effects of 4 and 5 on FAAH activity. […] The maximal inhibition (32%) of 5 was measured at 1 µM. Data are mean values ± SEM of 3 independent experiments. • Figure 3: Effects of low nM concentrations of N-alkylamide 7 on FAAH activity alone and in combination with the FAAH inhibitor URB597. […] Data are mean values ± SEM of 3 independent experiments. • Figure 4: 1 and 9 inhibit LPS-induced TNF-alpha release into culture medium (measured by ELISA). Human macrophages (10^6 cells) were stimulated with LPS (500 ng/ml) and treated with UCM707 and/or compounds 1 and 9 at 5 µM for 18 h. N = 3 ± SEM. • Figure 5: UCM707 (positive control) and compounds 1 and 9 diminish NO2^- production. Human macrophages (10^6 cells) were stimulated with LPS (500 ng/ml) and treated with UCM707 and/or compounds 1 and 9 at 5 µM for 18 h. Culture supernatants were assayed for nitrite levels, using the Griess reagent as a reflection of NO production. Results are the mean ± SEM of four independent experiments performed in duplicate • Figure 6: In CB receptor expressing human HaCaT keratinocytes (10^6 cells) UCM707 (control) 1 and 9 like the endocannabinoid anandamide (each 5 µM) inhibited tolerogen (10 µg/ml) induced chemokine IL-8 (6h stimulation and incubation). N = 3 ± SEM.

[2] = biological target: T1, FAAH (Sus scrofa, UniProt Q9TUI8); experiment: Fatty acid amide hydrolase (FAAH) inhibition, pig brain homogenate (assay D); assay type: biochemical; settings: 1 µM; pig brain homogenate (assay D)
T1 construct: 165 µl of diluted pig brain homogenate; from tissue; host or cells: pig brain homogenate
T1 sequence (Q9TUI8 1-579): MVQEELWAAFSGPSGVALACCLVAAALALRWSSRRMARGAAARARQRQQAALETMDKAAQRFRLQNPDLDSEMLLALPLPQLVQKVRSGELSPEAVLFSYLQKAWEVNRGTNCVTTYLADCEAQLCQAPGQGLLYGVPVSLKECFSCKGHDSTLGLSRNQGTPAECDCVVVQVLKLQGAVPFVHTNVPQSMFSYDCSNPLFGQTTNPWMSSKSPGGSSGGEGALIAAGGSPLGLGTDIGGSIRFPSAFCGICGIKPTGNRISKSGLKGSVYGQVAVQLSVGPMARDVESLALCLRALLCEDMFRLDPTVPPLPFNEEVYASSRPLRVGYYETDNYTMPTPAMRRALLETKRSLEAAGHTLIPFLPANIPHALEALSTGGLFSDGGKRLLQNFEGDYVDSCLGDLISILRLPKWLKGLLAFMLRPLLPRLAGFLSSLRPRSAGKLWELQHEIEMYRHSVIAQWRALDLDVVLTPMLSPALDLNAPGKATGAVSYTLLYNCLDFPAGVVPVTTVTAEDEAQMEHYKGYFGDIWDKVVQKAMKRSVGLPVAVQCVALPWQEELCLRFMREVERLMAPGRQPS

[3] = biological target: T2, human recombinant Fatty acid amide hydrolase (Homo sapiens, UniProt O00519); experiment: Inhibition of human recombinant FAAH, fluorometric method (assay G); assay type: biochemical; settings: human recombinant enzyme, AMC-anandamide substrate (assay G)
T2 sequence (O00519 1-579): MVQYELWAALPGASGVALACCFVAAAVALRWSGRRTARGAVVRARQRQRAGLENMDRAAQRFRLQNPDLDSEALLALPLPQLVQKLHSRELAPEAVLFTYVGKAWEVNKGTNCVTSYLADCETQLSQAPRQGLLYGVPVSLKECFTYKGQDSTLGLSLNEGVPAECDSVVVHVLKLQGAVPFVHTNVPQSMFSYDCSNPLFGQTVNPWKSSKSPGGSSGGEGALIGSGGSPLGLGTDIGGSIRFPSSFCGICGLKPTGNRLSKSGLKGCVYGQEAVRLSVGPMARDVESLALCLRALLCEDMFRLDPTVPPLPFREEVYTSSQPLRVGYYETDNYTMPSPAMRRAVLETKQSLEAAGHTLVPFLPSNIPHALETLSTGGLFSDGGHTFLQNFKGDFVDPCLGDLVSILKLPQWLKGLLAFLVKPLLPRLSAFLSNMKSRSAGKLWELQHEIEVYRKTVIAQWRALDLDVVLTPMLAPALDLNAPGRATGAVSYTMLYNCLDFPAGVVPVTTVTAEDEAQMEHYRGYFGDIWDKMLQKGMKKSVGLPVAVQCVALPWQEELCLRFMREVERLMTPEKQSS
Procedure: FAAH activity is measured using the modified method described by Omeir et al., Arachidonoyl ethanolamide-[1,2-14C] as a substrate for anandamide amidase. Life Sci. 1995;56(23-24):1999-2005. Human recombinant enzyme is preincubated with reference compound (methylarachidonlyfluorophosphonate, MAFP) and test compounds for 30 min at room temperature in 50 mM Tris containing 1 mM EDTA and 0.1% fatty acid free BSA (pH 8.0). Substrate (7-amino-4-methyl coumarin-arachidonamide, AMC-anandamide) is then added and incubated for 30 min at room temperature. The reaction is stopped by the addition of 2.5 µl of 10 µM URB597. Released 7-amino-4-methyl coumarin (AMC) is detected by fluorometry in order to ascertain any interactions of test compounds with the FAAH enzyme.

[4] = tested on: Arachidonoylethanolamide Transport (AEAT); experiment: Cellular uptake of [3H]-AEA in U937 cells (assay C); assay type: cell-based; settings: Homo sapiens, U-937; [3H]-AEA uptake, assay C (Tables 2 and 3)

| Compound | tolerogen induced chemokine IL-8 [1] | FAAH inhibition at 1 µM [2] | FAAH inhibition at 1 µM [3] | EC50 [4] |
| --- | --- | --- | --- | --- |
| CCCCCCC/C=C/C=C/C(=O)NCCc1cccc(OC)c1 [Example 9, (2E,4E)-N-(3-methoxyphenethyl)dodeca-2,4-diene amide] | inhibited | 14.63 ± 2.91 % of control | 16 % of control | 870 ± 120 nM |
| CCCCCCC/C=C/C=C/C(=O)NCCO [Example 1, (2E,4E)-N-(2-hydroxyethyl)dodeca-2,4-diene amide] | inhibited | <10 % of control | 9 % of control | 1220 ± 240 nM |
